# Key:
# Staphylococcus aureus = assay: Antimicrobial activity against Staphylococcus aureus CGMCC1.1361 after 24 hrs by modified microdilution method; type: functional; details: CGMCC1.1361, 24 h
# Bacillus subtilis = assay: Antimicrobial activity against Bacillus subtilis CGMCC1.1162 after 24 hrs by modified microdilution method; type: functional; details: CGMCC1.1162, 24 h
# Aspergillus niger = assay: Antimicrobial activity against Aspergillus niger CGMCC3.316 after 48 hrs by modified microdilution method; type: functional; details: CGMCC3.316, 48 h
# [1] = Cytotoxicity against human […] cells assessed as cell survival after 48 hrs by MTT assay; type: functional, cell-based
# Escherichia coli = assay: Antimicrobial activity against Escherichia coli CGMCC1.1571 after 24 hrs by modified microdilution method; type: functional; details: CGMCC1.1571, 24 h
# Pseudomonas fluorescens = assay: Antimicrobial activity against Pseudomonas fluorescens CGMCC1.1828 after 24 hrs by modified microdilution method; type: functional; details: CGMCC1.1828, 24 h
# Candida albicans = assay: Antimicrobial activity against Candida albicans CGMCC2.2086 after 48 hrs by modified microdilution method; type: functional; details: CGMCC2.2086, 48 h
# Candida tropicalis = assay: Antimicrobial activity against Candida tropicalis CGMCC2.3967 after 48 hrs by modified microdilution method; type: functional; details: CGMCC2.3967, 48 h
# HepG2 = assay: Cytotoxicity against human HepG2 cells assessed as cell survival after 48 hrs by MTT assay; type: functional, cell-based; details: HepG2, 48 h
# [2] = Cytotoxicity against human LO2 cells assessed as cell survival after 48 hrs by MTT assay; type: cell-based; details: L02, 48 h
SMILES,MIC (Staphylococcus aureus),MIC (Bacillus subtilis),MIC (Aspergillus niger),IC50 [1],MIC (Escherichia coli),MIC (Pseudomonas fluorescens),MIC (Candida albicans),MIC (Candida tropicalis),IC50 (HepG2),IC50 [2]
C[C@H]1[C@H](C)CC[C@]2(C(=O)NCCCN(C)C)CC[C@]3(C)C(=CC[C@@H]4[C@@]5(C)Cc6c([nH]c7ccc(Br)cc67)C(C)(C)[C@@H]5CC[C@]43C)[C@H]12,31.2 µg/mL,31.2 µg/mL,62.5 µg/mL,6.8 µM,31.2 µg/mL,15.6 µg/mL,> 100 µg/mL,62.5 µg/mL,5.65 µM,–
Cc1ccc2[nH]c3c(c2c1)C[C@]1(C)[C@H]2CC=C4[C@@H]5[C@@H](C)[C@H](C)CC[C@]5(C(=O)NCCCN(C)C)CC[C@@]4(C)[C@]2(C)CC[C@H]1C3(C)C,31.2 µg/mL,15.6 µg/mL,62.5 µg/mL,1.08 µM,31.2 µg/mL,31.2 µg/mL,> 100 µg/mL,> 100 µg/mL,1.26 µM,5.75 µM
COC(=O)[C@]12CC[C@@H](C)[C@H](C)[C@H]1C1=CC[C@@H]3[C@@]4(C)Cc5c([nH]c6ccc(F)cc56)C(C)(C)[C@@H]4CC[C@@]3(C)[C@]1(C)CC2,15.6 µg/mL,31.2 µg/mL,62.5 µg/mL,> 100 µM,31.2 µg/mL,31.2 µg/mL,62.5 µg/mL,62.5 µg/mL,97 µM,–
COC(=O)[C@]12CC[C@@H](C)[C@H](C)[C@H]1C1=CC[C@@H]3[C@@]4(C)Cc5c([nH]c6ccc(Br)cc56)C(C)(C)[C@@H]4CC[C@@]3(C)[C@]1(C)CC2,31.2 µg/mL,62.5 µg/mL,> 100 µg/mL,> 100 µM,> 100 µg/mL,62.5 µg/mL,> 100 µg/mL,> 100 µg/mL,> 100 µM,–

# From ChEMBL document CHEMBL3351749, “Synthesis, in vitro antimicrobial and cytotoxic activities of new carbazole derivatives of ursolic acid” (Bioorg Med Chem Lett, 2015)
